Data as given in patent US20190256994A1, “Electrochemical Deposition of Elements in Aqueous Media” (LumiShield Technologies Incorporated, priority 2016, published 2019).

Format: physicochemical
Details: 1 M aluminum aqueous solution
`[Cl][Al]([Cl])[Cl]` [AlCl3, Aluminum chloride] showed a pH of 2.04.

Details: acid of the ligand; cited from earlier work
In the case of `O=S(=O)(NS(=O)(=O)C(F)(F)F)C(F)(F)F` [bis(trifluoromethane) sulfonamide(Tf2N), bis(trifluoromethane) sulfonamide], the pKa in water is given as “Too negative to measure”. For “Methanesulfonate [Methanesulfonate (MSO)]”, the pKa in water is listed as -1.61. For `O=S(=O)(O)C(F)(F)F` [Triflate (TfO), Triflate], the pKa in water is listed as -3.43. For “p-Toluenesulfonate [p-Toluenesulfonate (p-TSA)]”, the pKa in water is listed as -2.14. In the case of “Trifluoroacetate [Trifluoroacetate (TFA)]”, the pKa in water is given as 0.52.
